The text below walks through data of patent US9938273B2 (Plexxikon Inc., priority 2015, dated 2018).

What is called IC50 is the concentration needed to halve the response being measured.

The subject of assay [1] is MOLM-14 D835Y cells, FLT3 ITD and FLT3 D835Y. The experiment in a line: Cell proliferation assay (CellTiter-Glo), MOLM-14 D835Y. Format: cell-based. The conditions noted are these: Homo sapiens, 72 h, 3d-Growth, GMean. In outline: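 MOLM-14 AML cells (endogenous FLT3 ITD, AC220-selected D835Y or F691L variants) or murine Ba/F3 expressing full-length FLT3 ITD/D835Y, without IL-3 for FLT3 dependence, 1×10^4 cells/well. Eight-point 1:3 series from 1 μM final, 0.2% DMSO, 3 days at 37 °C. CellTiter-Glo luminescence (ATP) gave IC50.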

Assay [2] deals with T1, FLT3-ITD (Homo sapiens, UniProt P36888).
T1 sequence (P36888 1-993): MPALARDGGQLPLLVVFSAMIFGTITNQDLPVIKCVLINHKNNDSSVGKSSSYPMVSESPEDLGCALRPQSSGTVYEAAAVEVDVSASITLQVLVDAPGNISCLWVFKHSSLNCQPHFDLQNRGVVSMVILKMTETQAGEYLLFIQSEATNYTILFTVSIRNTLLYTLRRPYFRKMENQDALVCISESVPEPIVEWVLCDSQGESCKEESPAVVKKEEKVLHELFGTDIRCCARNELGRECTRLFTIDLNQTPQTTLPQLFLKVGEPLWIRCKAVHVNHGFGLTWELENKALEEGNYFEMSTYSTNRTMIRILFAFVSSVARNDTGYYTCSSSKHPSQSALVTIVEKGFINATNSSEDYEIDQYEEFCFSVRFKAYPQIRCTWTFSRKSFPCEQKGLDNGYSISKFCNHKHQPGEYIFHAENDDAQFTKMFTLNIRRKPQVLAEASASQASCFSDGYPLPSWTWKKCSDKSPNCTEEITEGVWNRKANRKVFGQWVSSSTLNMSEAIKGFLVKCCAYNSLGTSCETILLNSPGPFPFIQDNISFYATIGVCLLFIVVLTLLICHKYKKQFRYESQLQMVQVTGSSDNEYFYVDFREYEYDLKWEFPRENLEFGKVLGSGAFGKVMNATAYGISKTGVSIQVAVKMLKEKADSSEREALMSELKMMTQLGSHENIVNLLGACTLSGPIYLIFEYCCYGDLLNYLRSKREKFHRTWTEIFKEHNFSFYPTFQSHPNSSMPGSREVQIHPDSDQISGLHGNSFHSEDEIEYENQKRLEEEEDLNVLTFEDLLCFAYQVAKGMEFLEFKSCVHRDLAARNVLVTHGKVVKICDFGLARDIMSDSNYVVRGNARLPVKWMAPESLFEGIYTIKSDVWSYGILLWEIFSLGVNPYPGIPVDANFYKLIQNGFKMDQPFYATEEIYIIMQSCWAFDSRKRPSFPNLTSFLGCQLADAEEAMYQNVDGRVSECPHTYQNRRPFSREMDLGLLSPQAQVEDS
The assay is described as follows: AlphaScreen kinase assay with recombinant enzyme, FLT3-ITD. The conditions noted are these: 8pt; read-out: FLT3_ITD 8pt: IC50. Format: biochemical. The essentials:
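Inhibition was measured as a drop in AlphaScreen signal arising from phosphotyrosine-bead capture of a biotinylated poly(Glu4-Tyr) peptide (30 nM) phosphorylated by recombinant kinase. For IC50 work the stated final concentration was 10 μM for the FLT3 mutants and 100 μM for c-KIT.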
Background: Alpha assays give light when donor and acceptor beads are brought close together.

Take `CC(C)(C)NC(=O)c1cccc(-c2cnc3[nH]c(-c4ccccc4)cc3c2)n1` [Compound P-0140, N-tert-butyl-6-(2-phenyl-1H-pyrrolo[2,3-b]pyridin-5-yl)pyridine-2-carboxamide]: the IC50 in assay [1] and in assay [2] was 0.0001 to 10 µM throughout.
As to `CC(C)(C#N)CNC(=O)c1cccc(-c2cnc3[nH]c(C4=CCN(C(=O)C5CC5)C4)cc3c2)n1` [Compound P-0141, N-(2-cyano-2-methyl-propyl)-6-[2-[1-(cyclopropanecarbonyl)-2,5-dihydropyrrol-3-yl]-1H-pyrrolo[2,3-b]pyridin-5-yl]pyridine-2-carboxamide], the IC50 in assay [1] and in assay [2] was 0.0001 to 10 µM throughout.
Take `N#CC1CCN(C(=O)c2cccc(-c3cnc4[nH]c(C5=CCOCC5)c(Cl)c4c3)n2)C1` (stereo not drawn) [Compound P-0142, 1-[6-[3-chloro-2-(3,6-dihydro-2H-pyran-4-yl)-1H-pyrrolo[2,3-b]pyridin-5-yl]pyridine-2-carbonyl]pyrrolidine-3-carbonitrile]: the IC50 in assay [1] and in assay [2] was 0.0001 to 10 µM throughout.
In the case of `N#CCCNC(=O)c1cccc(-c2cnc3[nH]c(-c4ccccc4)c(I)c3c2)n1` [Compound P-0143, N-(2-cyanoethyl)-6-(3-iodo-2-phenyl-1H-pyrrolo[2,3-b]pyridin-5-yl)pyridine-2-carboxamide], the IC50 in assay [1] and in assay [2] was 0.0001 to 10 µM each time.
Take `CC(C)(C#N)CNC(=O)c1cccc(-c2cnc3[nH]c(-c4ccc(F)cc4)cc3c2)n1` [Compound P-0144, N-(2-cyano-2-methyl-propyl)-6-[2-(4-fluorophenyl)-1H-pyrrolo[2,3-b]pyridin-5-yl]pyridine-2-carboxamide]: the 50% inhibitory concentration (IC50) in assay [1] and in assay [2] was 0.0001 to 10 µM in each case.
With `CC(C)(C#N)NC(=O)c1cccc(-c2cnc3[nH]c(-c4ccc(F)cc4)cc3c2)n1` [Compound P-0145, N-(1-cyano-1-methyl-ethyl)-6-[2-(4-fluorophenyl)-1H-pyrrolo[2,3-b]pyridin-5-yl]pyridine-2-carboxamide], the IC50 in assay [1] and in assay [2] was 0.0001 to 10 µM in each case.
In the case of `N#CC1(NC(=O)c2cccc(-c3cnc4[nH]c(-c5ccccc5)cc4c3)n2)CCCC1` [Compound P-0146, N-(1-cyanocyclopentyl)-6-(2-phenyl-1H-pyrrolo[2,3-b]pyridin-5-yl)pyridine-2-carboxamide], the IC50 in assay [1] and in assay [2] was 0.0001 to 10 µM throughout.
Take `N#CCCNC(=O)c1cccc(-c2cnc3[nH]c(-c4ccccc4)c(Br)c3c2)n1` [Compound P-0147, 6-(3-bromo-2-phenyl-1H-pyrrolo[2,3-b]pyridin-5-yl)-N-(2-cyanoethyl)pyridine-2-carboxamide]: the IC50 in assay [1] and in assay [2] was 0.0001 to 10 µM throughout.
On to `N#CC1(CNC(=O)c2cccc(-c3cnc4[nH]c(-c5ccccc5)c(Cl)c4c3)n2)CC1` [Compound P-0148, 6-(3-chloro-2-phenyl-1H-pyrrolo[2,3-b]pyridin-5-yl)-N-[(1-cyanocyclopropyl)methyl]pyridine-2-carboxamide], for which the IC50 in assay [1] and in assay [2] was 0.0001 to 10 µM each time.
Consider `O=C(NC1(C(F)(F)F)CCCC1)c1cccc(-c2cnc3[nH]c(-c4ccccc4)cc3c2)n1` [Compound P-0149, 6-(2-phenyl1H-pyrrolo[2,3-b]pyridin-5-yl)-N-[1-(trifluoromethyl)cyclopentyl]pyridine-2-carboxamide], for which the IC50 in assay [1] and in assay [2] was 0.0001 to 10 µM in each case.
With `CC(C)(O)CNC(=O)c1cccc(-c2cnc3[nH]c(-c4ccccc4)cc3c2)n1` [Compound P-0150, N-(2-hydroxy-2-methyl-propyl)-6-(2-phenyl-1H-pyrrolo[2,3-b]pyridin-5-yl)pyridine-2-carboxamide], the IC50 in assay [1] and in assay [2] was 0.0001 to 10 µM in each case.
On to `O=C(NC1(CO)CC1)c1cccc(-c2cnc3[nH]c(-c4ccccc4)cc3c2)n1` [Compound P-0151, N-[1-(hydroxymethyl)cyclopropyl]-6-(2-phenyl-1H-pyrrolo[2,3-b]pyridin-5-yl)pyridine-2-carboxamide], for which the IC50 in assay [1] and in assay [2] was 0.0001 to 10 µM each time.
`CC(C)(C#N)CNC(=O)c1cccc(-c2cnc3[nH]c(-c4ccnc(C5CC5)c4)cc3c2)n1` [Compound P-0152, N-(2-cyano-2-methyl-propyl)-6-[2-(2-cyclopropyl-4-pyridyl)-1H-pyrrolo[2,3-b]pyridin-5-yl]pyridine-2-carboxamide]: the IC50 in assay [1] and in assay [2] was 0.0001 to 10 µM in each case.
With `CC(C)(C#N)CNC(=O)c1cccc(-c2cnc3[nH]c(-c4cnn(C(F)F)c4)cc3c2)n1` [Compound P-0153, N-(2-cyano-2-methyl-propyl)-6-[2-[1-(difluoromethyl)pyrazol-4-yl]-1H-pyrrolo[2,3-b]pyridin-5-yl]pyridine-2-carboxamide], the IC50 in assay [1] and in assay [2] was 0.0001 to 10 µM throughout.
For the compound `COc1cc(-c2cc3cc(-c4cccc(C(=O)NCC(C)(C)C#N)n4)cnc3[nH]2)ccn1` [Compound P-0154, N-(2-cyano-2-methyl-propyl)-6-[2-(2-methoxy-4-pyridyl)-1H-pyrrolo[2,3-b]pyridin-5-yl]pyridine-2-carboxamide], the IC50 in assay [1] and in assay [2] was 0.0001 to 10 µM in each case.
`Cn1cc(-c2cc3cc(-c4cccc(C(=O)NCC(C)(C)C#N)n4)cnc3[nH]2)ccc1=O` [Compound P-0155, N-(2-cyano-2-methyl-propyl)-6-[2-(1-methyl-6-oxo-3-pyridyl)-1H-pyrrolo[2,3-b]pyridin-5-yl]pyridine-2-carboxamide]: the IC50 in assay [1] and in assay [2] was 0.0001 to 10 µM in each case.
Regarding `O=C(NC1(C(F)(F)F)CC1)c1cccc(-c2cnc3[nH]c(-c4ccccc4)cc3c2)n1` [Compound P-0156, 6-(2-phenyl-1H-pyrrolo[2,3-b]pyridin-5-yl)-N-[1-(trifluoromethyl)cyclopropyl]pyridine-2-carboxamide], the half-inhibitory concentration (IC50) in assay [1] and in assay [2] was 0.0001 to 10 µM each time.
Consider `CC(C)(C#N)CNC(=O)c1cccc(-c2cnc3[nH]c(C4=CCC(F)(F)CC4)cc3c2)n1` [Compound P-0157, N-(2-cyano-2-methyl-propyl)-6-[2-(4,4-difluorocyclohexen-1-yl)-1H-pyrrolo[2,3-b]pyridin-5-yl]pyridine-2-carboxamide], for which the IC50 in assay [1] and in assay [2] was 0.0001 to 10 µM throughout.
`CC(C)(C#N)CNC(=O)c1cccc(-c2cnc3[nH]c(C4=CCSCC4)cc3c2)n1` [Compound P-0159, N-(2-cyano-2-methyl-propyl)-6-[2-(3,6-dihydro-2H-thiopyran-4-yl)-1H-pyrrolo[2,3-b]pyridin-5-yl]pyridine-2-carboxamide]: the IC50 in assay [1] and in assay [2] was 0.0001 to 10 µM each time.
For `CC(C)(C#N)CNC(=O)c1cccc(-c2cnc3[nH]c(C4=CCS(=O)(=O)CC4)cc3c2)n1` [Compound P-0160, N-(2-cyano-2-methyl-propyl)-6-[2-(1,1-dioxo-3,6-dihydro-2H-thiopyran-4-yl)-1H-pyrrolo[2,3-b]pyridin-5-yl]pyridine-2-carboxamide], the 50% inhibitory concentration (IC50) in assay [1] and in assay [2] was 0.0001 to 10 µM in each case.
As to `CC(C)(C#N)CNC(=O)c1cccc(-c2cnc3[nH]c(C4=CC[S+]([O-])CC4)cc3c2)n1` (stereo not drawn) [Compound P-0161, N-(2-cyano-2-methyl-propyl)-6-[2-(1-oxo-3,6-dihydro-2H-thiopyran-4-yl)-1H-pyrrolo[2,3-b]pyridin-5-yl]pyridine-2-carboxamide], the IC50 in assay [1] and in assay [2] was 0.0001 to 10 µM in each case.
